In patent US20250145589A1, “PYRIDINE DERIVATIVE AND USE THEREOF” (SICHUAN HUIYU PHARMACEUTICAL CO., LTD., priority 2021, published 2025):
Read-outs that look alike come from different tables or passages of the source.

Columns and labels:
[1] = tested on: MIA PaCa-2 cells (KRAS G12C mutant); assay: MIA PaCa-2 cell anti-proliferation (CellTiter-Glo); assay type: cell-based; details: Homo sapiens, 72 h; MIA Paca-2 cells, 3 days, Table 7; read-out: MIA PaCa-2 (IC50)
In short: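 Viable-cell luminescence (CellTiter-Glo, ≥30 min at 25 °C) measured after a 3-day, 37 °C exposure to compounds at 9 points, 4-fold spaced, in DMEM containing 10% FBS plus 2.5% horse serum. IC50 derived versus no-inhibitor wells.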

KRAS^G12C-SOS1 = KRAS^G12C-SOS1 (Homo sapiens (Human), UniProt P01116, G12C); assay: HTRF KRAS G12C/SOS1 binding assay; details: Table 5
Chain of KRAS^G12C-SOS1 (P01116-2 other isoform, or with tags, fused parts or gaps G12C): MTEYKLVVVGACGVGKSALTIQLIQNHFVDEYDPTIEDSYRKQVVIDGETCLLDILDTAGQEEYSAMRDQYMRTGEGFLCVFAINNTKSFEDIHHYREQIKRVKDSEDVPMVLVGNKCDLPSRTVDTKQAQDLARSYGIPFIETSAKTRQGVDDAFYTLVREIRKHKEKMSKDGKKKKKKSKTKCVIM
Description: Initially, a 2 mM stock solution of the test compound (dissolved in DMSO) was serially diluted in five-fold concentrations using DMSO to obtain eight working solutions 1 (200×). Subsequently, each of the eight working solutions 1 was further diluted in a 20-fold gradient by adding 5 μL into 95 μL of Diluent buffer, mixed completely with vortex mixer, resulting in eight working solutions 2 (10×). […] Subsequently, 5 μL of Anti-tag 1-Tb^3+ stock solution and 5 μL of Anti-tag2-XL665 were added to each well, mixed, and incubated at 4° C. for 3 hours. Remove the plate and read on an HTRF® compatible reader, with the excitation light wavelength set at 337 nm and readings recorded at 620 nm and 665 nm. The data results were presented as the ratio of the 665 nm signal value to the 620 nm signal value for each well, calculated as follows: […]. The inhibition rate was calculated using the following formula: […]
Data were analyzed using GraphPad Prism with log (inhibitor) vs. response-Variable Slope (four parameters) fitting calculations for IC50 values.

PI3Kδ = PI3Kδ (Homo sapiens (Human), UniProt O00329); assay: Inhibition of PI3Kδ efficacy assay (ADP-Glo kinase assay); assay type: biochemical; details: read-out: PI3Kδ inhibitory activity (IC50)
Chain of PI3Kδ (O00329 whole entry): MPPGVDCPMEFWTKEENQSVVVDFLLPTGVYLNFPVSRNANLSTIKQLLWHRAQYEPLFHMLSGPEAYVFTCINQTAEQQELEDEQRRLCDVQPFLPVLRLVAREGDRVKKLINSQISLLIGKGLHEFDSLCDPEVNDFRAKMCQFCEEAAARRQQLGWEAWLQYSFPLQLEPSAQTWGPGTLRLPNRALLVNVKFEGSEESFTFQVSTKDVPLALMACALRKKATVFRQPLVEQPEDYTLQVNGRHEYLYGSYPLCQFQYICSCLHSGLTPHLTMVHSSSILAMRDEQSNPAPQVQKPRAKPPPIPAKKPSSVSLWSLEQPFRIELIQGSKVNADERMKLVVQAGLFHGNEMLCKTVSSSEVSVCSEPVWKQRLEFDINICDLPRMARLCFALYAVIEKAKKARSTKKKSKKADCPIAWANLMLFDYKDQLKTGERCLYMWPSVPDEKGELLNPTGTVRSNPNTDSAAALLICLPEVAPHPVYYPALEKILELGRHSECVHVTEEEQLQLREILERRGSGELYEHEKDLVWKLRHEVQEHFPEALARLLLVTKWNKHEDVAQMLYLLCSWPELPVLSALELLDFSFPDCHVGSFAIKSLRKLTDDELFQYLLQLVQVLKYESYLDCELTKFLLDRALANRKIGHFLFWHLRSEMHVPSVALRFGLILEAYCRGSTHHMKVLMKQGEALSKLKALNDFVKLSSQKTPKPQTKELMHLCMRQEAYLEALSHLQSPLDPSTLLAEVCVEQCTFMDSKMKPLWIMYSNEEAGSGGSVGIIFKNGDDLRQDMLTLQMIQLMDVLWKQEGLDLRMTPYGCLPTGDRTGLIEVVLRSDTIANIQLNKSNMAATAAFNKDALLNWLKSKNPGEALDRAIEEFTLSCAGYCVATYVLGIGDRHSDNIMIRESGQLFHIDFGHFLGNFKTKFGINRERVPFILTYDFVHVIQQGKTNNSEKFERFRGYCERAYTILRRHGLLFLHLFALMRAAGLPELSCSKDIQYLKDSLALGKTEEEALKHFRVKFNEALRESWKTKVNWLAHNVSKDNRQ
Chain of PI3Kδ (P27986 whole entry partner): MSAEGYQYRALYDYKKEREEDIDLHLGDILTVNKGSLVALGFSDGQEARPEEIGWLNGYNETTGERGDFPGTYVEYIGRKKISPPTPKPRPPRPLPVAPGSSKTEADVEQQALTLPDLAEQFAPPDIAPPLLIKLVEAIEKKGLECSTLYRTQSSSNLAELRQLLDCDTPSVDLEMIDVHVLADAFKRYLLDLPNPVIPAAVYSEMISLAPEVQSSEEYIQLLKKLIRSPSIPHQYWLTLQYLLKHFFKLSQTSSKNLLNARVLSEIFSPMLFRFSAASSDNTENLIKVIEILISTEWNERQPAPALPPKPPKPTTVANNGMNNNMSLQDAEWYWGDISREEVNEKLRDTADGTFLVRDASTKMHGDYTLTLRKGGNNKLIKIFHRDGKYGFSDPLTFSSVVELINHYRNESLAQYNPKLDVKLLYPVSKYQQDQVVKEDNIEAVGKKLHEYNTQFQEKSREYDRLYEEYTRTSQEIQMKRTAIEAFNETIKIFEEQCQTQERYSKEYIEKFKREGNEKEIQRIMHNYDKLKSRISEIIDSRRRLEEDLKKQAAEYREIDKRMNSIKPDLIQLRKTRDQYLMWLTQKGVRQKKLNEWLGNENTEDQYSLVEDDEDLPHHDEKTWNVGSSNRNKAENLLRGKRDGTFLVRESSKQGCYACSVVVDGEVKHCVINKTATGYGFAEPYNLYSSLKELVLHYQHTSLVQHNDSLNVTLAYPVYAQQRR
In short: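 Luminescent ADP-Glo readout of PI3Kδ: after a 60 min RT reaction with PI/ATP substrate, ATP depletion (40 min) and ADP detection (40 min) steps followed. Compounds tested as eight five-fold serial dilutions; inhibition rates fitted to log(inhibitor) vs. response, variable slope, for IC50.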

PI3Kα = PI3Kα (Homo sapiens (Human), UniProt P42336); assay: Inhibition of PI3Kα efficacy assay (ADP-Glo kinase assay); assay type: biochemical; details: read-out: PI3Kα inhibitory activity (IC50)
Chain of PI3Kα (P42336 whole entry): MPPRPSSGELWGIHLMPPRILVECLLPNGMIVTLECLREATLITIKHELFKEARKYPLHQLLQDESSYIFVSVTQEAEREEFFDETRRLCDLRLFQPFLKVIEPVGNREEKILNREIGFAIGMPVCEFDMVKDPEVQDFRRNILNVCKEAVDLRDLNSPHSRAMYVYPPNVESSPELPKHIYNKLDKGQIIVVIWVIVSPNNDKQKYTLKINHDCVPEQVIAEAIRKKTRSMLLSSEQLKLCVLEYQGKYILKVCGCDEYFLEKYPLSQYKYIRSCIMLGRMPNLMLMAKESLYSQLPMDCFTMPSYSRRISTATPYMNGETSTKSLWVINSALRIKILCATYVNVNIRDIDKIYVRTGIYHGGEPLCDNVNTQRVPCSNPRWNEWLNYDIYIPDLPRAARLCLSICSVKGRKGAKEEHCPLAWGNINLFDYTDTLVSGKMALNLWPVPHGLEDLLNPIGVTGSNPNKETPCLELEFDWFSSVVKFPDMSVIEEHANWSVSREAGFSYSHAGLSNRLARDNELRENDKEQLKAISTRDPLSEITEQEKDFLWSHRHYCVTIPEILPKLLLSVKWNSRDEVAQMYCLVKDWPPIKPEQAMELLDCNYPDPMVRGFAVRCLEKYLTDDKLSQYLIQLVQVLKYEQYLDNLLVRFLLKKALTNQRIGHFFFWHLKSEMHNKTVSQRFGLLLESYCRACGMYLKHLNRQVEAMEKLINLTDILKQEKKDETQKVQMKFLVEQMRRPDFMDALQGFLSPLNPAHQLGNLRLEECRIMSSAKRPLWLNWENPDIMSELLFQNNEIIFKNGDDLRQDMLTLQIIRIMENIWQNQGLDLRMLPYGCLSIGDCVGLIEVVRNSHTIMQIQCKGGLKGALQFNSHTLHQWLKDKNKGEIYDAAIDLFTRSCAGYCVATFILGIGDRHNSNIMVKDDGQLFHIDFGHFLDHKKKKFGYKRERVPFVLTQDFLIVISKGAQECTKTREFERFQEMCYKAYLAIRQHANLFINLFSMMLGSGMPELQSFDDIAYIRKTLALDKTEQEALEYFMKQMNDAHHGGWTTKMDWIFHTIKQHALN
Chain of PI3Kα (P27986 whole entry partner): as the sequence (P27986 whole entry partner) above
In short: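 Eight five-fold dilutions of compound (2 mM DMSO stock) tested; kinase reaction with PI and ATP ran 60 min at RT, followed by ADP-Glo and detection reagent steps of 40 min each. Four-parameter logistic fitting gave IC50 values.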

[2] = tested on: NCI-H358 cells (KRAS G12C mutant); assay: NCI-H358 cell proliferation inhibition (CellTiter-Glo); assay type: cell-based; details: Homo sapiens, NCI-H358, 72 h; H358 cells (G12C mutation), 3 days, Table 6; read-out: NCI-H358 (IC50)
[3] = tested on: MIA PaCa-2-AMGR drug-resistant cell line; assay: MIA PaCa-2-AMGR drug-resistant cell proliferation inhibitory activity test; assay type: cell-based; details: 72 h, MIA PaCa-2-AMGR drug-resistant cells, 3 days incubation, CellTiter-Glo
Description: Test Example 7: Generation of MIA PaCa-2-AMGR drug-resistant cell line
(§1) MIA PaCa-2 cells were seeded and cultured at 50 to 70% confluence in six-well plate with DMEM (10% FBS+2.5% horse serum) medium at 37° C. with 5% CO2. AMG510 was added for induction at three starting concentrations of 1 nM, 10 nM and 50 nM, and the medium containing the same concentration of AMG510 was replaced every 3 days. Cells were passaged once they reached confluence. After every two passages at a given concentration of drug, the concentration was increased in a 3-fold increment until final concentrations of 1 μM for AMG510 was achieved.
(§2) MIA PaCa-2-AMGR cells in logarithmic growth phase were collected and seeded into a clear-bottom 96-well plate at a density of 4×10^3 cells per well in 80 μL of medium, and then incubated overnight at 37° C. with 5% CO2. The compounds were serially diluted 5-fold in DMSO to obtain 8 concentrations, and then further diluted with DMEM (10% FBS+2.5% horse serum) cell culture medium to obtain the working solutions (5×), 20 μL of each working solution was added to the cell culture supernatant in each well, and the plate was further incubated for 3 days at 37° C. with 5% CO2. The plate was then equilibrated with CellTiter-Glo® reagent at room temperature (25° C.) for 10-30 minutes. After aspirating 50 μL of the medium, 50 μL of CellTiter-Glo® reagent was added. The cells were thoroughly mixed with the CellTiter-Glo® reagent using a microplate shaker for 2 minutes, and then incubated at room temperature for 10 minutes. The 96-well plate was placed in a multi-mode microplate reader to record the luminescence values (RLU).
(§3) The inhibitory rate was calculated using the following formula: […]
Data were analyzed using GraphPad Prism for IC50 values (Note: The negative control refers to the group without inhibitor) The data were presented m Table 9

[4] = tested on: NCI-H358-AMGR drug-resistant cell line; assay: NCI-H358-AMGR drug-resistant cell proliferation inhibitory activity test; assay type: cell-based; details: 72 h; NCI-H358-AMGR drug-resistant cells, 3 days incubation, CellTiter-Glo
Description: Test Example 6t Generation of NCI-H358-AMGR Drug-Resistant Cell Line
as §1, with “NCI-H358 cells” for “MIA PaCa-2 cells”, “with RPMI-640” for “with DMEM”, “(10% FBS)” for “(10% FBS+2.5% horse serum)”, “with 5%4” for “with 5%”, “After every,” for “After every”, “a 3-old” for “a 3-fold”
as §2, with “NCI-H358-AMGR cells” for “MIA PaCa-2-AMGR cells”, “with RPMI-640)” for “with DMEM”, “(10% FBS)” for “(10% FBS+2.5% horse serum)”, “of CellTiter-Glo®,” for “of CellTiter-Glo®”, “the CellTiter-Glo®,” for “the CellTiter-Glo®”, “The […]” for “The 96-well”
as §3
Data were analyzed using GraphPad Prism for IC50 values (Note: The negative control refers to the group without inhibitor).

Structure (SMILES) | IC50 [1] | IC50 (KRAS^G12C-SOS1) | IC50 (PI3Kδ; Table 1) | IC50 (PI3Kα; Table 1) | IC50 [2] | IC50 (PI3Kα; Table 4) | IC50 [3] | IC50 [4] | IC50 (PI3Kδ; Table 4)
CC(=O)/C=C/C(=O)N1CCN(c2ncnc3ccc(-c4cnc(Cl)c(NS(=O)(=O)c5ccc(F)cc5F)c4)cc23)CC1 [Example 34, (E)-N-(2-chloro-5-(4-(4-(4-oxopent-2-enoyl)piperazin-1-yl)quinazolin-6-yl)pyridin-3-yl)-2,4-difluorobenzenesulfonamide] | 254 nM | 521 nM | 20.8 nM | 1.4 nM | – | – | – | – | –
CNC(=O)/C=C/C(=O)N1CCN(c2ncnc3ccc(-c4cnc(OC)c(NS(=O)(=O)c5ccc(F)cc5F)c4)cc23)CC1 [Example 179, (E)-4-(4-(6-(5-((2,4-difluorophenyl)sulfonamido)-6-methoxy-pyridin-3-yl)quinazolin-4-yl)piperazin-1-yl)-N-methyl-4-oxobut-2-enamide] | 87.8 nM | 147 nM | – | – | 276 nM | 0.37 nM | – | – | –
COc1ccc(S(=O)(=O)Nc2cc(-c3ccc4ncnc(N5CCN(C(=O)/C=C/C(C)=O)CC5)c4c3)cnc2OC)c(F)c1 [Example 185, (E)-2-fluoro-4-methoxy-N-(2-methoxy-5-(4-(4-(4-oxopent-2-enoyl)piperazin-1-yl)quinazolin-6-yl)pyridin-3-yl)benzene-sulfonamide] | 104 nM | – | – | – | 69.4 nM | 1.6 nM | 45.7 nM | 131 nM | –
COc1ncc(-c2ccc3ncnc(N4CCN(C(=O)/C=C/C(C)=O)CC4)c3c2)cc1NS(=O)(=O)c1c(C)cccc1F [Example 186, (E)-2-fluoro-N-(2-methoxy-5-(4-(4-(4-oxopent-2-enoyl)piperazin-1-yl)quinazolin-6-yl)pyridin-3-yl)-6-methyl-benzene-sulfonamide] | 52.9 nM | – | – | – | 25.4 nM | 2.4 nM | 31.3 nM | 43.9 nM | –
COc1ncc(-c2ccc3ncnc(N4CCN(C(=O)/C=C/C(C)=O)CC4)c3c2)cc1NS(=O)(=O)c1ccc(F)c2ccccc12 [Example 187, (E)-4-fluoro-N-(2-methoxy-5-(4-(4-(4-oxopent-2-enoyl)piperazin-1-yl)quinazolin-6-yl)pyridin-3-yl)naphthalene-1-sulfonamide] | 173 nM | – | – | – | 140 nM | 4.6 nM | 224 nM | 373 nM | –
COc1ncc(-c2ccc3ncnc(N4[C@H](C)CN(C(=O)/C=C/C(C)=O)C[C@@H]4C)c3c2)cc1NS(=O)(=O)c1ccccc1F [Example 193, N-(5-(4-((2R,6S)-2,6-dimethyl-4-((E)-4-oxopent-2-enoyl)piperazin-1-yl)quinazolin-6-yl)-2-methoxypyridin-3-yl)-2-fluorobenzenesulfonamide] | 115 nM | – | – | – | 52.7 nM | 2.8 nM | 66.2 nM | 21.6 nM | –
CC(=O)/C=C/C(=O)N1CCN(c2ncnc3ccc(-c4cnc(OC(F)(F)F)c(NS(=O)(=O)c5ccc(F)cc5F)c4)nc23)CC1 [Example 226, (E)-2,4-difluoro-N-(5-(4-(4-(4-oxopent-2-enoyl)piperazin-1-yl)pyrido[3,2-d]pyrimidin-6-yl)-2-(trifluoro-methoxy)pyridin-3-yl)benzene-sulfonamide] | 357 nM | – | – | – | 248 nM | 1.4 nM | 424 nM | 359 nM | –
COc1ncc(-c2ccc3ncnc(N4CCN(C(=O)/C=C/C(C)=O)CC4)c3n2)cc1NS(=O)(=O)c1c(C)cccc1F [Example 229, (E)-2-fluoro-N-(2-methoxy-5-(4-(4-(4-oxopent-2-enoyl)piperazin-1-yl)pyrido[3,2-d]pyrimidin-6-yl)pyridin-3-yl)-6-methyl-benzene-sulfonamide] | 40.8 nM | – | – | – | 24 nM | 3 nM | 31.3 nM | 30 nM | –
COc1ncc(-c2ccc3ncnc(C4CCN(C(=O)/C=C/C(C)=O)CC4)c3n2)cc1NS(=O)(=O)c1c(F)cccc1Cl [Example 235, (E)-2-chloro-6-fluoro-N-(2-methoxy-5-(4-(1-(4-oxopent-2-enoyl)piperidin-4-yl)pyrido[3,2-d]pyrimidin-6-yl)pyridin-3-yl)benzenesulfonamide] | – | 113 nM | – | – | – | 0.3 nM | – | – | 2.38 nM
COc1ncc(-c2ccc3ncnc(C4=CCN(C(=O)/C=C/C(C)=O)CC4)c3n2)cc1NS(=O)(=O)c1c(F)cc(F)cc1F [Example 236, (E)-2,4,6-trifluoro-N-(2-methoxy-5-(4-(1-(4-oxopent-2-enoyl)-1,2,3,6-tetrahydropyridin-4-yl)pyrido[3,2-d]pyrimidin-6-yl)pyridin-3-yl)benzenesulfonamide] | 34.6 nM | – | – | – | 19.5 nM | 1.7 nM | 28.8 nM | 44.7 nM | –
COc1ncc(-c2ccc3ncnc(C4=CCN(C(=O)/C=C/C(C)=O)CC4)c3n2)cc1NS(=O)(=O)c1c(F)cccc1Cl [Example 241, (E)-2-chloro-6-fluoro-N-(2-methoxy-5-(4-(1-(4-oxopent-2-enoyl)-1,2,3,6-tetrahydropyridin-4-yl)pyrido[3,2-d]pyrimidin-6-yl)pyridin-3-yl)benzenesulfonamide] | – | 454 nM | – | – | – | 0.27 nM | – | – | 2.96 nM
COc1ncc(-c2ccc3ncnc(C4CCN(C(=O)/C=C/C(C)=O)C4)c3c2)cc1NS(=O)(=O)c1ccc(F)cc1F (stereo not shown) [Example 247, (E)-2,4-difluoro-N-(2-methoxy-5-(4-(1-(4-oxopent-2-enoyl)pyrrolidin-3-yl)quinazolin-6-yl)pyridin-3-yl)benzenesulfonamide] | – | 277 nM | – | – | – | 0.53 nM | – | – | 3.33 nM
